EP0698347B1, “Food composition containing reuterin” (BIOGAIA BIOLOGICS AB, priority 1987, dated 1988)

Key:
[1] = Antimicrobial activity of pure commercial preparations; format: cell-based; conditions: concentrations as high as 0.125M
Description: Reuterin Is a Product of Glycerol Fermentation. Reuterin is a new product associated with the same type of heterolactic fermentation of glycerol that occurs in other Lactobacillus species. Reuterin can be isolated and identified as a product of glycerol fermentation by L. reuteri using HPLC.

E. coli [2] = assay: Co-culture of E. coli with and without L. reuteri 1063 on various substrates (Table 1); format: cell-based; design: % Inhibition: concentration or dose not given beside the values; conditions: for E. coli (CFU/ml) after 6 hours: substrate 20 mM (C6, C5) or 40 mM (C3), inoculum 5 x 10^6 CFU per ml E. coli; for % Inhibition: E. coli with versus without L. reuteri 1063 on the substrate, 6 hours
Experimental: (§1) Conditions under which reuterin is produced have been determined. Reuterin is not produced under aerobic conditions (atmospheric oxygen concentration) but under reduced oxygen tension. It is produced when L. reuteri is cultured anaerobically (or semi-anaerobically in still culture) in the MIC assay medium described above containing 20-500 mM glycerol or glyceraldehyde in place of glucose as the major carbon and energy source. […] Twenty other substances, including hexoses, hexitols, pentoses, pentitols, disaccharides and a variety of phosphorylated and non-phosphorylated C3-substances, were tested for their ability to support reuterin production. […] The medium, containing a substrate at 20 mM (C6 and C5 substrates) or 40 mM (C3 substrates) concentrations, was inoculated with 5 x 10^6 colony-forming units (CFU) per ml E. coli with and without L. reuteri. Only glycerol and glyceraldehyde yielded reuterin. Also, réuterin production from glycerol is inhibited when glucose or another growth substrate is included in the production medium. The results shown in Table 2 indicate the percent inhibition in viable count of a 6.7 x 10^7 CFU per ml E. coli inoculum by supernatant fractions of L. reuteri grown on various indicated substrates at 40 mM concentrations.

E. coli [3] = assay: Inhibition of E. coli by supernatant fractions of L. reuteri grown on various substrates (Table 2); format: cell-based; conditions: for % Inhibition: percent inhibition in viable count of 6.7 x 10^7 CFU per ml E. coli inoculum by supernatant fraction, substrate 40 mM; for Growth of E. coli presence of centrifuged culture medium CFU/ml after 6 hours: supernatant fraction of L. reuteri grown on the substrate at 40 mM, inoculum 6.7 x 10^7 CFU per ml E. coli
Experimental: as §1

Bacillus megaterium = assay: Sensitivity to reuterin (Table 6); format: cell-based
Experimental: (§2) Antimicrobial Activity. Reuterin is a broad-spectrum antimicrobial agent. Reuterin functions as a bacteriocide. […] The indicated concentrations (CFU per ml) of E. coli (solid lines) and L. reuteri 1063 (dashed lines) were inoculated (zero time) into the glycerol casein hydrolysate medium described above (o), the same medium minus citrate (•) and the same medium minus glycerol (X). The co-cultures were incubated semi-anaerobically (still cultures) at 37 degrees C with samples removed at the indicated intervals to determine the numbers (CFU per ml) of E. coli and L. reuteri present. […] All Gram-negative bacterial genera tested thus far (Escherichia, Shigella, Salmonella, Proteus and Pseudomonas) and all Gram positive genera tested (Staphylococcus, Streptococcus, Clostridium, Bacillus, Leuconostoc and Lactobacillus) are sensitive to reuterin. Somewhat higher concentrations of reuterin are required, however, to kill representatives of the latter three genera. A lower eucaryote, the yeast Saccharomyces cerevisiae, is also killed by reuterin. Also shown in this table is the ability of various species tested to stimulate reuterin production by the heterologous procedure.

Clostridium sporogenes = assay: Sensitivity to reuterin (Table 6); format: cell-based
Experimental: as §2

[4] = tested on: Leuconostoc mesenteroides; assay: Sensitivity to reuterin (Table 6); format: cell-based
Experimental: as §2

Pediococcus cerevisiae = assay: Sensitivity to reuterin (Table 6); format: cell-based
Experimental: as §2

Saccharomyces cerevisiae = assay: Sensitivity to reuterin (Table 6); format: cell-based
Experimental: as §2

L. reuteri = assay: Sensitivity of L. reuteri itself to reuterin; format: cell-based
Experimental: as §2

Tryoanosoma cruzi = assay: In vitro growth of the protozoan parasite; format: cell-based; conditions: final concentration of approximately 20 MIC units ml^-1
E. coli [5] = assay: Bacteriocidal activity in E. coli / L. reuteri 1063 co-culture in glycerol medium (Figure 5); format: cell-based; conditions: glycerol present; co-culture with L. reuteri 1063, still culture, 37 degrees C; few hours after first 3-4 hours
Experimental: as §2

Escherichia coli = assay: Reuterin added to phage-infected bacterial cultures: host CFUs (Figure 13); format: cell-based; conditions: 10 units of reuterin; four hours; compared to the reuterin-free control culture
Experimental: (§3) Antiviral Activity. Reuterin is also effective in preventing virus replication. […] It appears from preliminary results with ^14C-labeled glycerol that 4 ug of reuterin in 0.5 ml solution is about the equivalent of 1 unit of reuterin. After four hours, the number of colony-forming units (CFUs) of the host cell and the number of plaque-forming units (PFUs) of the viruses were assayed using standard microbiological techniques. With no reuterin added, the number of microbial cells had increased about 100-fold in the four-hour period. With E. coli, addition of 10 units of reuterin caused an approximate 100-fold decrease in the number of cells and more than a 1000-fold decrease in the number of PFUs of the lambda phage as compared to the reuterin-free control culture after incubation for four hours.

Lambda phage = assay: Reuterin added to phage-infected bacterial cultures: virus PFUs (Figure 13); format: cell-based; conditions: 10 units of reuterin; four hours; compared to the reuterin-free control culture
Experimental: as §3

phage 8014-B2 = assay: Reuterin added to phage-infected bacterial cultures: virus PFUs versus host CFUs (Figure 13); format: cell-based, Lactobacillus plantarum; conditions: reuterin amounts at or greater than 25 units; four hours
Experimental: as §3

ground beef microflora = assay: Food preservation: ground beef microflora (Figure 14); conditions: 50 and 100 units per g; stored at 4 degrees C; through the 6-day test period
Experimental: Reuterin is an effective food preservative. Ground beef purchased from a local supermarket was divided into 4 portions. One portion was untreated, the others were treated with 10, 50 and 100 units of reuterin per gram of the meat. All samples were stored at 4 degrees C with samples taken at indicated days for bacteriological analysis.
Beef samples were removed and diluted 1:10 (1 g beef: 9 ml sterile H2O). Subsequent decimal dilutions were made as needed and samples were plated onto Difco Nutrient Agar. These samples were incubated at 27°C for 24 hours and counted as colony forming units per gram ground beef (CFU/g). […] With the higher levels of reuterin (50 and 100 units per g) the indigenous population of bacteria was reduced and remained greater than 4 log units lower than the control sample through the 6-day test period.

E. coli K12 [6] = assay: Food preservation: E. coli-inoculated ground beef (Figure 15); conditions: 75 units (U) of reuterin per gram of beef; 4°C; 9-day incubation period
Experimental: Ground beef purchased from a local supermarket was thoroughly inoculated and mixed with approximately 10^5CFU/ml of E. coli K12 cells. After mixing, the material was divided into 2 portions. One portion was an untreated control (no reuterin), the other portion received 75 units (U) of reuterin per gram of beef. Samples were stored at 4°C with portions removed at indicated times for bacteriological analysis. In this experiment the determination of viable cells (CFU/g beef) was conducted as described for Figure 14 except that Difco McConkey's Agar (relatively specific for coliform-like bacteria) was used.

[7] = Characterizations of reuterin in crude preparations; format: physicochemical
E. coli K12 [8] = assay: Minimum Inhibitory Concentration (MIC) procedure; format: cell-based; conditions: chemically synthesized as described by Hall, compared with biologically synthesized reuterin
Experimental: Reuterin. When Lactobacillus reuteri cells capable of producing reuterin are placed under certain favorable conditions, reuterin is produced. A number of assays have been developed to detect and quantitate reuterin. A standard Minimum Inhibitory Concentration (MIC) procedure was adopted to detect reuterin and to elucidate factors affecting its production. E. coli K12 is used as the susceptible test microorganism and the assay is carried-out as follows. Overnight cultures of E. coli are harvested, washed twice with sterile 0.05 sodium phosphate buffer (pH 7.5), suspended in this buffer and adjusted to 60 percent transmission (A 420 nm) using a Spectronic 70 instrument. This suspension is diluted 1:100 and 0.1 ml aliquots are used to inoculate 1.0 ml of the MIC assay medium which contains (g/L): vitamin-free casein hydrolysate, 3; ammonium citrate, 1.9; citric acid, 0.63; KH2PO4, 12.6; MgSO4 (hepta-hydrate), 0.2; pH adjusted to 7.0 and 20 mM glucose added after sterilization. […] Relative reuterin concentrations (units reuterin) are then calculated as the reciprocal of the sample dilution preceding the dilution allowing visible growth of the indicator cells. Another assay relating MIC values to reuterin peak heights as determined by HPLC analyses (described below) has also been developed.

Row | Compound | E. coli (CFU/ml) after 6 hours (E. coli [2]; Addition of L. reuteri 1063: +) | E. coli (CFU/ml) after 6 hours (E. coli [2]; Addition of L. reuteri 1063: -) | % Inhibition (E. coli [2]) [%] | % Inhibition (E. coli [3]) [%] | Growth of E. coli presence of centrifuged culture medium CFU/ml after 6 hours (E. coli [3]) | also measured
1 | OCCCO [1,3-propanediol] | – | – | – | – | – | antimicrobial activity [1]: essentially devoid of antimicrobial activity
2 | OC[C@@H](O)C(O)[C@H](O)CO [Arabitol] | 2.9x10^6 CFU/ml | 2.7x10^6 CFU/ml | 0 | – | – | –
3 | O=C(CO)COP(=O)(O)O [Dihydroxyacetone-P] | 4.1x10^6 CFU/ml | 3.4x10^6 CFU/ml | 0 | 0 | 3.7x10^9 CFU/ml | –
4 | O=C(CO)[C@@H](O)[C@H](O)[C@H](O)CO [Fructose] | 3.0x10^8 CFU/ml | 2.1x10^8 CFU/ml | 0 | – | – | –
5 | O=C(O)[C@H](O)[C@@H](O)[C@H](O)[C@H](O)CO [Gluconate] | 3.2x10^8 CFU/ml | 3.5x10^8 CFU/ml | 0 | – | – | –
6 | O=CC(O)CO (stereo not shown) [Glyceraldehyde] | 3.2x10^4 CFU/ml | 2.8x10^6 CFU/ml | 99 | 98.9 | 6.1x10^5 CFU/ml | –
7 | OC[C@@H](O)[C@@H](O)[C@H](O)[C@H](O)CO [Mannitol] | 2.7x10^8 CFU/ml | 2.3x10^8 CFU/ml | 0 | – | – | –
8 | C=C(OP(=O)(O)O)C(=O)O [Phosphoenolpyruvate] | – | – | – | 0 | 3.7x10^9 CFU/ml | –
9 | CC(=O)C(=O)O [Pyruvate] | – | – | – | 0 | 4.1x10^9 CFU/ml | –
10 | OC[C@@H](O)[C@@H](O)[C@@H](O)CO [Ribitol] | 4.9x10^6 CFU/ml | 5.7x10^6 CFU/ml | 0 | – | – | –
11 | OC[C@@H](O)[C@@H](O)[C@H](O)[C@@H](O)CO [Sorbitol] | 1.9x10^8 CFU/ml | 2.1x10^8 CFU/ml | 0 | – | – | –
12 | O=C[C@H](O)[C@@H](O)[C@H](O)CO [Xylose] | 6.9x10^7 CFU/ml | 6.7x10^7 CFU/ml | 0 | – | – | –
13 | OCCC1OCCC(O)O1 (stereo not shown) [reuterin, 4-hydroxy-2-2'-hydroxyethyl-1:3-dioxan] | – | – | – | – | – | Sensitivity to reuterin (Bacillus megaterium): S; Sensitivity to reuterin (Clostridium sporogenes): S; Sensitivity to reuterin [4]: S; Sensitivity to reuterin (Pediococcus cerevisiae): S; Sensitivity to reuterin (Saccharomyces cerevisiae): S; concentrations at which L. reuteri itself is sensitive to reuterin (L. reuteri): ≥ 32 MIC units; in vitro growth of the protozoan parasite (Tryoanosoma cruzi): inhibits in vitro growth; log decrease in viable E. coli cells (E. coli [5]): 7-8 log; decrease in the number of cells (Escherichia coli): about 100 fold; decrease in the number of PFUs of the lambda phage (Lambda phage): > 1000 fold; Lactobacillus CFU and PFU decreases due to reuterin (phage 8014-B2): even greater declines in the PFUs than in the CFUs; indigenous population of bacteria lower than the control sample (ground beef microflora): greater than 4 log units; viable cells (CFU/g beef) on McConkey's Agar (E. coli K12 [6]): reduced the initial population of bacteria and kept these numbers low; stability to heat ([7]; 100 degrees C for 10 minutes, particularly at pH values of 9.0 or higher): labile to heat; resistance to nucleases and proteases ([7]; crude preparations): resistant to nucleases and proteases; solubility in water ([7]; crude preparations): highly soluble in water; MIC value (E. coli K12 [8]): idential MIC value as the biologically synthesized reuterin
14 | O=P(O)(O)OC(CO)CO [β-Glycerol-P] | 6.5x10^6 CFU/ml | 5.1x10^6 CFU/ml | 0 | 0 | 3.2x10^9 CFU/ml | –
15 | O=C(O)CCO [β-hydroxypropionic acid] | – | – | – | – | – | antimicrobial activity [1]: essentially devoid of antimicrobial activity
16 | Phosphoglycerate | – | – | – | 0 | 3.3x10^9 CFU/ml | –
